Paper PMC11129182, “Development of Inhibitors, Probes, and PROTAC Provides a Complete Toolbox to Study PARK7 in the Living Cell” (Journal of Medicinal Chemistry, 2024)
Like-named read-outs stand apart in the source and are kept apart here.

Key:
[1] = biological target: T1, PARK7 (Homo sapiens, UniProt Q99497); assay: Hit validation and pure-compound testing in the PARK7 FP assay with JYQ-107; type: biochemical; conditions: for inhibition at 0.25 µM: read-out: % Inhibition 0.25 µM
T1 sequence (Q99497 1-189): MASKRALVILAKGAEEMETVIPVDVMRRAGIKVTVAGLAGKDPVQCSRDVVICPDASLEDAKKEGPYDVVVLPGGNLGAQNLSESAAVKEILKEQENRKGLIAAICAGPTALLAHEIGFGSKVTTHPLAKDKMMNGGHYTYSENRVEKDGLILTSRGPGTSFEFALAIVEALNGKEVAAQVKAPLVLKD

[2] = biological target: T1, PARK7; assay: High-throughput screen of the crude compound library, PARK7 fluorescence polarization (FP) assay with FP reagent JYQ-107; type: biochemical; conditions: for inhibition at 1.25 µM: crude compound library, read-out: HTS FP assay %Inhibition (1.25 µM)
[3] = biological target: T1, PARK7; assay: Activity evaluation of PROTACs in cells (PARK7 degradation, immunoblot); conditions: A549 cells, 8 h
Description: A549 cells were seeded into 6-well plates. The next day after seeding, cells were incubated with the indicated concentrations of indicated PROTACs for 8 h. The cells were then washed with PBS and collected. The collected cell pellets were lysed with Tris-triton buffer as described above. The prepared cell lysate of each sample (10 μL) was added 5 μL 3× LDS + 5% β-mercaptoethanol, and boiled for 10 min.

[4] = crude compounds, 0.5 µM, read-out: % Inhibition 0.5 µM

| SMILES | inhibition at 0.25 µM ([1]; crude compounds, 0.25 µM) [%] | inhibition at 0.5 µM [1, 4] [%] | inhibition at 1 µM ([1]; crude compounds) [%] | inhibition at 1.25 µM [2] [%] | inhibition at 1.25 µM ([2]; FP reagent JYQ-107) [%] | PARK7 degradation [3] | concentration at which PARK7 degradation starts ([3]; 0.1 to 5 μM) [µM] | inhibition at 0.25 µM [1] [%] | inhibition at 0.5 µM ([1]; read-out: % inhibition 0.5 μM) [%] | inhibition at 1 µM ([2]; read-out: % inhibition in HTS) [%] |
| --- | --- | --- | --- | --- | --- | --- | --- | --- | --- | --- |
| N#CN1CC[C@@H](C(=O)Nc2nc3c(s2)CN(C(=O)c2ccc(Cn4cc(Br)cn4)o2)CC3)C1 [Compound 140] | 36.9 | 62.1 | 85.7 | 90.7 |  |  |  |  |  |  |
| N#CN1CC[C@@H](C(=O)Nc2nc3c(s2)CN(C(=O)c2cc(S(=O)(=O)NCCCN4CCCC4=O)ccc2Cl)CC3)C1 [Compound 146] | 45 | 70.4 | 90.7 | 89.7 |  |  |  |  |  |  |
| CC(C)c1nc(Cn2cc(C(=O)N3CCc4nc(NC(=O)[C@@H]5CCN(C#N)C5)sc4C3)ccc2=O)cs1 [Compound 149] | 42.9 | 69.6 | 89.6 | 93.2 |  |  |  |  |  |  |
| N#CN1CC[C@@H](C(=O)Nc2nc3c(s2)CN(C(=O)c2csc(C4CC4)n2)CC3)C1 [Compound 152] | 45.4 | 67.6 | 89.3 | 92.4 |  |  |  |  |  |  |
| N#CN1CC[C@@H](C(=O)Nc2nc3c(s2)CN(C(=O)c2cnn(-c4cccc(Br)c4)c2)CC3)C1 [Compound 156] | 50.5 | 79.8 | 94.7 | 92.6 |  |  |  |  |  |  |
| N#CN1CC[C@@H](C(=O)Nc2nc3c(s2)CN(C(=O)C2CC(=O)N(C4CCCCCC4)C2)CC3)C1 (stereo partly drawn) [Compound 163] | 43.1 | 70.9 | 90.3 | 89.6 |  |  |  |  |  |  |
| N#CN1CC[C@@H](C(=O)Nc2nc3c(s2)CN(C(=O)c2cc(C4CCCCC4)[nH]n2)CC3)C1 [Compound 164] | 48.2 | 75.6 | 94.4 | 95.1 |  |  |  |  |  |  |
| Cc1ccc(-c2cc(C(=O)N3CCc4nc(NC(=O)[C@@H]5CCN(C#N)C5)sc4C3)n[nH]2)s1 [Compound 165] | 56.4 | 82.2 | 95.6 | 95.1 |  |  |  |  |  |  |
| N#CN1CC[C@@H](C(=O)Nc2nc3c(s2)CN(C(=O)C2CN(S(=O)(=O)C4CC4)C2)CC3)C1 [Compound 174] | 35 | 63.1 | 87.7 | 91.8 |  |  |  |  |  |  |
| Cc1ccc([C@@H]2C[C@H]2C(=O)N2CCc3nc(NC(=O)[C@@H]4CCN(C#N)C4)sc3C2)s1 [Compound 188] | 53.3 | 79 | 94.5 | 94.2 |  |  |  |  |  |  |
| N#CN1CC[C@@H](C(=O)Nc2nc3c(s2)CN(C(=O)c2ccc(Cl)c(N4CCCS4(=O)=O)c2)CC3)C1 [Compound 197] | 65.4 | 85.8 | 95 | 95.6 |  |  |  |  |  |  |
| N#CN1CC[C@@H](C(=O)Nc2nc3c(s2)CN(C(=O)c2cccc(Cn4ccnc4)c2)CC3)C1 [Compound 215] | 52.1 | 78.4 | 93.3 | 91.5 |  |  |  |  |  |  |
| N#CN1CC[C@@H](C(=O)Nc2nc3c(s2)CN(C(=O)Cc2cnn(-c4ccccc4)n2)CC3)C1 [Compound 217] | 55.5 | 85.4 | 94.3 | 78.9 |  |  |  |  |  |  |
| N#CN1CC[C@@H](C(=O)Nc2nc3c(s2)CN(C(=O)c2cnn(-c4ccc(Br)cc4)c2)CC3)C1 [Compound 219] | 65.1 | 87.4 | 96.7 | 96.4 |  |  |  |  |  |  |
| COc1ccc(C(=O)N2CCc3nc(NC(=O)[C@@H]4CCN(C#N)C4)sc3C2)cc1S(=O)(=O)NCCCN1CCOCC1 [Compound 242] | 46.8 | 71.2 | 91.4 | 89.2 |  |  |  |  |  |  |
| N#CN1CC[C@@H](C(=O)Nc2nc3c(s2)CN(C(=O)c2ccc(-c4ccccn4)s2)CC3)C1 [Compound 258] | 44.4 | 72.9 | 91 | 89.2 |  |  |  |  |  |  |
| N#CN1CC[C@@H](C(=O)Nc2nc3c(s2)CN(C(=O)c2ccc(Oc4cccc(Cl)c4)cn2)CC3)C1 [Compound 268] | 33.9 | 63.1 | 82.8 | 89.7 |  |  |  |  |  |  |
| N#CN1CC[C@@H](C(=O)Nc2nc3c(s2)CN(C(=O)c2ccc(-c4ccccn4)nc2)CC3)C1 [Compound 274] | 44.5 | 71.4 | 91.8 | 92.9 |  |  |  |  |  |  |
| N#CN1CC[C@@H](C(=O)Nc2nc3c(s2)CN(C(=O)c2cc(-n4cccc4)ccn2)CC3)C1 [Compound 279] | 82.4 | 96.1 | 96.8 | 94.2 |  |  |  |  |  |  |

| SMILES | inhibition at 0.25 µM ([1]; crude compounds, 0.25 µM) [%] | inhibition at 0.5 µM [1, 4] [%] | inhibition at 1 µM ([1]; crude compounds) [%] | inhibition at 1.25 µM [2] [%] | inhibition at 1.25 µM ([2]; FP reagent JYQ-107) [%] | PARK7 degradation [3] | concentration at which PARK7 degradation starts ([3]; 0.1 to 5 μM) [µM] | inhibition at 0.25 µM [1] [%] | inhibition at 0.5 µM ([1]; read-out: % inhibition 0.5 μM) [%] | inhibition at 1 µM ([2]; read-out: % inhibition in HTS) [%] |
| --- | --- | --- | --- | --- | --- | --- | --- | --- | --- | --- |
| COc1ccccc1-c1cc(C(=O)N2CCc3nc(NC(=O)[C@@H]4CCN(C#N)C4)sc3C2)n[nH]1 [Compound 293] | 48.1 | 76 | 93 | 97.5 |  |  |  |  |  |  |
| N#CN1CC[C@@H](C(=O)Nc2nc3c(s2)CN(C(=O)c2cnn(-c4ccccc4)n2)CC3)C1 [Compound 295] | 38.6 | 65.4 | 88 | 89.6 |  |  |  |  |  |  |
| CN(CC1CC1)c1ccc(C(F)(F)F)cc1C(=O)N1CCc2nc(NC(=O)[C@@H]3CCN(C#N)C3)sc2C1 [Compound 304] | 50.5 | 73.9 | 93.7 | 93.7 |  |  |  |  |  |  |
| N#CN1CC[C@@H](C(=O)Nc2nc3c(s2)CN(C(=O)c2coc(C#Cc4ccccc4)c2)CC3)C1 [Compound 311] | 18.8 | 50.2 | 83.4 | 90.8 |  |  |  |  |  |  |
| N#CN1CC[C@@H](C(=O)Nc2nc3c(s2)CN(C(=O)c2cccc(Oc4ccc(Cl)cc4)n2)CC3)C1 [Compound 312] | 34.1 | 62.9 | 89.5 | 92.1 |  |  |  |  |  |  |
| N#CN1CC[C@@H](C(=O)Nc2nc3c(s2)CN(C(=O)c2cccnc2Oc2ccccc2Br)CC3)C1 [Compound 313] | 63 | 81.5 | 94.7 | 94.5 |  |  |  |  |  |  |
| N#CN1CC[C@@H](C(=O)Nc2nc3c(s2)CN(C(=O)c2cnn(-c4ccc(C(F)(F)F)cc4)c2)CC3)C1 [Compound 314] | 43.8 | 75.1 | 93 | 98.2 |  |  |  |  |  |  |
| Cc1c[nH]c(=O)n1-c1cccc(C(=O)N2CCc3nc(NC(=O)[C@@H]4CCN(C#N)C4)sc3C2)c1 [Compound 315] | 44 | 66.5 | 91.2 | 90 |  |  |  |  |  |  |
| N#CN1CC[C@@H](C(=O)Nc2nc3c(s2)CN(C(=O)CCn2nc(C(F)(F)F)cc2C2CC2)CC3)C1 [Compound 333] | 57.5 | 79.2 | 94.5 | 93.5 |  |  |  |  |  |  |
| Cn1cc(-c2cc(C(=O)N3CCc4nc(NC(=O)[C@@H]5CCN(C#N)C5)sc4C3)n[nH]2)cn1 [Compound 337] | 51.5 | 72.7 | 92.5 | 89.6 |  |  |  |  |  |  |
| N#CN1CC[C@@H](C(=O)Nc2nc3c(s2)CN(C(=O)c2cccnc2Oc2ccc(Cl)cc2Cl)CC3)C1 [Compound 345] | 63.1 | 85 | 95 |  | 92.1 |  |  |  |  |  |
| N#CN1CC[C@@H](C(=O)Nc2nc3c(s2)CN(C(=O)c2ccc(=O)n(C4CC4)c2)CC3)C1 [Compound 369] | 60.5 | 81 | 94.1 |  | 89.2 |  |  |  |  |  |
| N#CN1CC[C@@H](C(=O)Nc2nc3c(s2)CN(C(=O)c2cccc(-c4ncon4)c2)CC3)C1 [Compound 381] | 64.1 | 84.8 | 97.7 |  | 93.4 |  |  |  |  |  |
| CC1CCCCN1S(=O)(=O)c1ccccc1C(=O)N1CCc2nc(NC(=O)[C@@H]3CCN(C#N)C3)sc2C1 (stereo partly drawn) [Compound 386] | 57.7 | 79.9 | 95.9 |  | 94.5 |  |  |  |  |  |
| N#CN1CC[C@@H](C(=O)Nc2nc3c(s2)CN(C(=O)c2cccc(S(=O)(=O)N4CCN(C(=O)Cn5cc(COCCOCCNc6cccc7c6C(=O)N(C6CCC(=O)NC6=O)C7=O)nn5)CC4)c2)CC3)C1 (stereo partly drawn) [JYQ-187] |  |  |  |  |  | No degradation of PARK7 was observed |  |  |  |  |
| N#CN1CC[C@@H](C(=O)Nc2nc3c(s2)CN(C(=O)c2cccc(S(=O)(=O)N4CCN(C(=O)Cn5cc(COCCOCCOCCNc6cccc7c6C(=O)N(C6CCC(=O)NC6=O)C7=O)nn5)CC4)c2)CC3)C1 (stereo partly drawn) [JYQ-188] |  |  |  |  |  | No degradation of PARK7 was observed |  |  |  |  |
| N#CN1CC[C@@H](C(=O)Nc2nc3c(s2)CN(C(=O)c2cc(-n4cc(COCCOCCOCCNc5cccc6c5C(=O)N(C5CCC(=O)NC5=O)C6=O)nn4)ccc2F)CC3)C1 (stereo partly drawn) [JYQ-195] |  |  |  |  |  |  | 2 |  |  |  |
| N#CN1CC[C@@H](C(=O)Nc2nc3c(s2)CNCC3)C1 [cyanimide amine precursor, (R)-1-cyano-N-(4,5,6,7-tetrahydrothiazolo[5,4-c]pyridin-2-yl)pyrrolidine-3-carboxamide] |  |  |  |  |  |  |  | 3 | 20 | ~40 |
